Patent US20220297126A1, “Microfluidic Pipette Aspirators for Large-Scale Analysis of Single Cells, Clusters and Their Sub-Populations” (Texas Tech University System, priority 2019, published 2022)
Structures can show the parent of a compound that is named as a salt.

Experiments:
Assay type in all cases: cell-based
MB231 cells = test: Mechanical characterization (Young's modulus) of drug treated cells in the μFPA device; settings: FIG. 12A
Experimental: Total 1440 traps, 150 μL Inlet reservoir, Aspiration channel dimension 5×5×35 μm^3. In these figures, a schematic of the complete design. It has an inlet reservoir for holding cell sample. The inlet channel divides into 8 channels and all of them have dead ends. Aspiration traps are place on both sides of the inlet channels. Outlets of two aspiration arrays comes into an outlet channel. Except the first and last outlet channel where a single aspiration has outlets. It has total 1440 traps. This is the snapshot of the PDMS device. In the SEM image you can have a sense of the larger dimension of inlet and outlet channels compared to the aspiration channels.
FIGS. 10A to 10C show the mechanical characterization of cells in the device of the present invention.
FIGS. 12A and 12B show the sensitivity of different cells (MB231 and MCF7) to different drugs (blebbistatin and paclitaxel), and the Young's modulus of the cells. […] Also, cell cycle phases have altered cytoskeletal scaffold. Thus, the μFPA device is sensitive enough to measure cytoskeletal alterations caused by drug interventions and cell cycle phase.

MB-231 single cells = test: Proliferation of single cells in the microfluidic device in the presence of Dox
Experimental: (§1) Drug Assays. Drug assays were conducted on the tumor cells trapped in the microfluidic device. Food and Drug Administration (FDA) approved chemotherapeutic medication Doxorubicin hydrochloride (Dox, Sigma Aldrich) was used on these cells. Dox was diluted with WFI (water for injection) for cell culture (Gibco) to make a 1 mM Dox solution and it was stored at 4° C. This stock solution of Dox was diluted to 100 μM using DMEM, and further 10-fold serial dilutions were done using DMEM or 1× Annexin Binding Buffer (Life technologies) to obtain the desired concentrations of 100 μM, 10 μM, 1 μM, 0.1 μM, 0.01 μM and 0.001 μM. For all experiments, Dox was prepared freshly by diluting it to 100 μM using DMEM and further dilutions were done to achieve the desired concentrations of Dox. The mixing of Dox with the cell samples and loading them in the microfluidic device was done within 2 minutes, followed by imaging of the loaded sample in the microfluidic device. After imaging the microfluidic device, it was incubated in 37° C. and 5% CO2 environment.
(§2) Experimental Protocol. The experimental setup for single cell isolation consists of the microfluidic device, 200 μL single channel pipette (Eppendorf) and a motorized inverted system microscope (Olympus IX81). A sample of 2000 cells in 100 μL was loaded in the 6 mm reservoir (inlet) in the microfluidic device. A 200 μL single channel pipette was set at the 1 mm outlet and it was used to aspirate the cell sample. Flow is generated from the inlet reservoir due to the aspiration pressure and passes through the trapping array. As soon as a cell enters into the parking spots, it gets trap there due to the obstacle pillar. This setup is shown the by schematic in FIG. 2A.
(§3) The MCF-7 cells are tagged using a green fluorescent dye CMFDA (Life technologies) and are trapped in the microfluidic device using the same protocol. […] Media was added in the hydrodynamic height added on the reservoir to keep the cells from getting displaced from the parking spots. All the cell samples including the drug treated cells were handled with the same experimental procedure. The loading time of the cells after cell sample preparation is ˜5 seconds. The hydrodynamic height for the drug treated samples was given by media of corresponding drug concentration.
(§4) Cell staining, viability and apoptosis detection. Proliferation of cells in the microfluidic chip was monitored using CellTracker™ Green CMFDA dye (Life technologies). These counts were validated without staining and by using NucBlue™ Live ReadyProbes™ Reagent (Life technologies) to identify the cell nuclei and thus quantifying the cell counts. LIVE/DEAD® Cell Imaging Kit (Life technologies) was used to analyze viability of cells. The stain was made according to the manufacturer's protocol and was used to identify the live and dead cells. Alexa Fluor® 488 Annexin V (Life technologies) was used for detection of apoptosis. The cell sample and Dox dilution was done using 1× Annexin Binding Buffer (Life technologies). 100 μL of sample was prepared (80 μL cell sample+10 μL Annexin V+10 μL Dox) for conducting drug assays. The final concentrations of the Dox in 100 μL sample were 0.01 μM, 0.001 μM and 0.0001 μM. This sample was incubated at 37° C. and 5% CO2 for 30 minutes before loading in the microfluidic device. The images were taken at different time points for different studies. The microfluidic device was stored in the incubator at 37° C. and 5% CO2 between different image time points.
(§5) To understand the effect of different concentrations of dox on viability of single cells, the inventors conducted a dose response cell viability assay in the microfluidic device. […] From this viability curve, three concentrations were selected to study the proliferation potential of drug resistant MCF-7 and MB-231 single cells. As the […] on the proliferation rate, the lowest three concentrations were selected for this study. […]

MCF-7 single cells = test: as above; settings: time not restated (period of 48 hours)
Experimental: as §1, §2, §3, §4, §5

MB-231 cells = test: Identifying the state of drug treated cells (apoptotic, non-proliferating/quiescent, proliferating) in the microfluidic device; settings: for cells identified as quiescent: 48 hours
Experimental: as §1, §4
(§6) Identifying the state of drug treated cells. […] These single cells can exist in an apoptotic state or a non-proliferative (quiescent) state. Thus, identifying the state of the cell can give overall information about the drug resistance of cancer cells.
(§7) The apoptotic cells are dead cells; and the non-proliferating cells are the drug resistant cells which are live and have very low proliferative potential. The proliferating cells are also drug resistant cells, which multiply despite of the presence of drug. The drug response for these trapped cells is assessed at 0, 6, 12, 24, 48 hours at 0.01 μM, 0.001 μM and 0.0001 μM concentrations of Dox.
(§8) At the end of 48 hours, the non-proliferative cells were identified as quiescent cells. […] Similarly, 23%, 34% and 10% of cells were identified as quiescent for 0.01 μM, 0.001 μM and 0.0001 μM of dox and MB-231.

MCF-7 cells = test: as above; settings: for cells identified as quiescent: 48 hours
Experimental: as §1, §4, §6, §7, §8

| Structure (SMILES) | cytoskeletal alteration seen as Young's modulus of the cells vs control (MB231 cells) | cells proliferated (MB-231 single cells; MB-231, 0.0001 μM dox, time not restated (period of 48 hours)) | cells proliferated (MB-231 single cells; MB-231, 0.001 μM dox, time not restated (period of 48 hours)) | cells proliferated (MB-231 single cells; MB-231, 0.01 μM dox, at the end of 48 hours) | cells proliferated (MB-231 single cells; MB-231, 0.01 μM dox, in 24 hours) | cells underwent proliferation (MCF-7 single cells; MCF-7, 0.0001 μM Dox) | cells underwent proliferation (MCF-7 single cells; MCF-7, 0.001 μM Dox) | cells underwent proliferation (MCF-7 single cells; MCF-7, 0.01 μM Dox) | cells show drug resistance (MB-231 cells; MB-231, 0.0001 μM dox) | cells identified as quiescent (MB-231 cells; MB-231, 0.0001 μM dox) | cells show drug resistance (MB-231 cells; MB-231, 0.001 μM dox) | cells identified as quiescent (MB-231 cells; MB-231, 0.001 μM dox) | cells show drug resistance (MB-231 cells; MB-231, 0.01 μM dox) | cells identified as quiescent (MB-231 cells; MB-231, 0.01 μM dox) | cells show drug resistance (MCF-7 cells; MCF-7, 0.0001 μM dox) | cells identified as quiescent (MCF-7 cells; MCF-7, 0.0001 μM dox) | cells show drug resistance (MCF-7 cells; MCF-7, 0.001 μM dox) | cells identified as quiescent (MCF-7 cells; MCF-7, 0.001 μM dox) | cells show drug resistance (MCF-7 cells; MCF-7, 0.01 μM dox) | cells identified as quiescent (MCF-7 cells; MCF-7, 0.01 μM dox) |
| --- | --- | --- | --- | --- | --- | --- | --- | --- | --- | --- | --- | --- | --- | --- | --- | --- | --- | --- | --- | --- |
| CC(=O)O[C@H]1C(=O)[C@@]2(C)[C@H]([C@H](OC(=O)c3ccccc3)[C@]3(O)C[C@H](OC(=O)[C@H](O)[C@@H](NC(=O)c4ccccc4)c4ccccc4)C(C)=C1C3(C)C)[C@]1(OC(C)=O)CO[C@@H]1C[C@@H]2O [paclitaxel] | cytoskeletal alternations in MB231 are induced | – | – | – | – | – | – | – | – | – | – | – | – | – | – | – | – | – | – | – |
| Cc1ccc2c(c1)C(=O)C1(O)CCN(c3ccccc3)C1=N2 (stereo not drawn) [blebbistatin] | cytoskeletal alternations in MB231 are induced | – | – | – | – | – | – | – | – | – | – | – | – | – | – | – | – | – | – | – |
| COc1cccc2c1C(=O)c1c(O)c3c(c(O)c1C2=O)C[C@@](O)(C(=O)CO)C[C@@H]3O[C@H]1C[C@H](N)[C@H](O)[C@H](C)O1 [Dox, Doxorubicin hydrochloride] | – | ~70% | ~50% | ~40% | ~20% | ~80% | ~60% | ~45% | ~85% | 10% | ~80% | 34% | ~60% | 23% | ~90% | 6% | ~75% | 10% | ~60% | 8% |
